# Experimental data: patent publication US10562910B2, “Nitrogen-containing tricyclic compounds and uses thereof in medicine” (SUNSHINE LAKE PHARMA CO., LTD., priority 2016, dated 2020)
# pEC50: −log10 of the molar value.
# Key:
# FXR-LBD = FXR-LBD (Homo sapiens (Human), UniProt Q96RI1); experiment: TR-FRET Farnesoid X Receptor Coactivator Assay; assay type: biochemical; conditions: TR-FRET farnesoid X receptor protein coactivator activity
# Description: Purchasing invitrogen PV4833 kits. The procedure refers to LanthaScreen™ TR-FRET Farnesoid X Receptor Coactivator Assay
# First, the required amount of the compound was weighed and dissolved in 100% DMSO at the maximum concentration of 3000 μM. The solution at the maximum concentration was diluted by 3-fold serial dilution in DMSO to get 10 concentrations;
# Second, the above prepared solutions of different concentrations were diluted to 50-fold with a buffer supplied with the kit, to 2× compound solution, followed by mixing and then 10 μL of the diluted solution was added to a 384 well plate;
# Third, FXR-LBD was diluted with a buffer to 4× solution, and 5 μL of the diluent was added to the 384 well plate of second step;
# Fourth, Fluorescein-SRC2-2 and Tb anti-GST antibody were diluted to 4× Fluorescein-SRC2-2 and Tb anti-GST antibody solution. Then two reagents were mixed together, and 5 μL of the mixture was added to the 384 well plate of third step;
# Finally, the solution of the 384 well above was mixed uniformly by centrifuging, and then incubated at room temperature for 1 h. Then the TR-FRET Endpoint method was used for measuring the solution at wavelengths of 520 nm, 495 nm and 337 nm.
# [1] = Pharmacokinetics test in SD rats; assay type: in vivo; conditions: rat, plasma, male SD rats; for Vd: read-out: Vss; for bioavailability: po 5 mg/kg vs iv 1 mg/kg
# Description: Example 22 Pharmacokinetics Test
# Experimental animals: six healthy adult male SD rats (purchased from Hunan SJA Laboratory Animal Co. Ltd.) were divided into two groups, three rats in each group, and the two groups were given intravenous injection and oral administration respectively.
# Drug preparation: a quantity of a compound of the present invention was weighed, and 5% DMSO, 10% Kolliphor HS15 and 85% saline (0.9%) were added to give target concentrations of the compound solution.
# Administration and sample collection: animals were fasted for 12 h before administration, and fed at the time point of 3 hours after the administration. SD rats of one group were given intravenous injection (IV, 1 mg/kg) via hind legs and SD rats of the other group were given oral administration (PO, 5 mg/kg) respectively. Then blood was collected in the rat tail vein at the time point of 0, 0.083, 0.25, 0.5, 1, 2, 4, 6, 8, 24 h respectively, and the blood volume was about 200-400 μL/time point. After the collection of whole blood at each time point, the collected blood was set in K2EDTA anticoagulant tube, and the tube was placed in the incubator with ice packs. All samples were centrifuged for 5 min at 4° C. at 4600 r/min within 15 min. Plasma was separated and collected. The concentrations of different compounds in the plasma of the rats after administration were measured using LC/MS/MS method, and the pharmacokinetic parameters were calculated according to the curve of the drug concentration-time.
# [2] = biological target: FXR ligand binding domain (LBD) (Homo sapiens (Human), UniProt Q96RI1); experiment: Mammalian one hybrid (M1H) GAL4 reporter gene assay in HEK293 cells; assay type: cell-based; conditions: GAL4 reporter gene test
# FXR ligand binding domain (LBD), sequence (Q96RI1 261-481): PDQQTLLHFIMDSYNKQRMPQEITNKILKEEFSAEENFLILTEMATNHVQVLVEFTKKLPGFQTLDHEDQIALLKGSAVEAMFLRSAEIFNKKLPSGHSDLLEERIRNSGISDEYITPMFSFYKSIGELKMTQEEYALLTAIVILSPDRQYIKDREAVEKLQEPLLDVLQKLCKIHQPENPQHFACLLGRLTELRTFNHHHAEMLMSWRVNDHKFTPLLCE
# Text: Mammalian one hybrid technology is also called chimeric receptor gene assay. Based on the GAL4 chimera receptor assay, the activity of compounds which mediated activation of FXR was detected by dual luciferase reporter assay. The methods were as follows: cDNA encoding the FXR ligand binding domain (LBD), the yeast GAL4 DNA binding domain (DBD) and the Renilla luciferase DNA were fused to construct a chimera expression plasmid pBIND-FXR (Promega). […] The plasmid pG5Luc (Promega) was used as the reporter plasmid, containing the GAL4 upstream activation sequence (UAS) and the Firefly luciferase receptor gene. All GAL4 reporter gene assays were done in HEK293 cells. Cells were cultured at 37° C., 5% CO2 under humidified conditions. […] The contents were mixed completely and incubated the mixtures for 15 minutes at room temperature. The volume of the transfection mixture was 2.5 μl/well. Trypsinized and diluted the cell slurry at a density of […] (100 μl/well for 96-well plate). Then added required volume of transfection mixture prepared previously into the cell slurry, and dispensed 100 μl/well of the cell slurry into the 96-well plate and incubated the plate for 24 hours at 37° C., 5% CO2 under humidified conditions. Compounds prediluted in complete medium were added into each well and then incubated at 37° C., 5% CO2 under humidified conditions for 18 hours. The firefly and renilla luciferase signal was assayed by Promega's Dual Luciferase Reporter Assay System.
# The % Activation value was calculated by the following equation: Activation %=[(X−Min)/(Max−Min)]×100%. “X” is the “F/R” value from compounds. “F/R” means “Firefly/Renilla”. “Min” is the mean “F/R” value from no compound control. “Max” is the mean “F/R” value from reference compound control. Finally, the EC50 value of each compounds were calculated by GraphPrism 5.0.
# FXR-LBD, sequence (Q96RI1 262-486): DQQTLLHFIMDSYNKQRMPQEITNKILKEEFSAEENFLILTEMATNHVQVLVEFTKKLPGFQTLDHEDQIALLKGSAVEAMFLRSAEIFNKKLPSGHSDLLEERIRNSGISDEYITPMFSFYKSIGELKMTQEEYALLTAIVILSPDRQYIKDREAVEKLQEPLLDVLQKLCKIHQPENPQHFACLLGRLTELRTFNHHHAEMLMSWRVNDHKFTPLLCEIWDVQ
smiles,measurement,setting,value
"O=C(O)c1ccc2c(c1)Oc1ccc(OCc3c(-c4c(Cl)cccc4Cl)noc3C3CC3)nc1C=C2F [Example 1, 2-((5-cyclopropyl-3-(2,6-dichlorophenyl)isoxazol-4-yl)methoxy)-10-fluorobenzo[6,7]oxepino[3,2-b]pyridine-7-carboxylic acid]",pEC50,FXR-LBD,7.31
same,AUC(0-inf),[1]; iv 1 mg/kg,1540 ng·h/mL
same,AUC(0-t),[1]; iv 1 mg/kg,1540 ng·h/mL
same,Cmax,[1]; iv 1 mg/kg,1890 ng/mL
same,MRT inf,[1]; iv 1 mg/kg,47.5 min
same,Tmax,[1]; iv 1 mg/kg,4.98 min
same,clearance,[1]; iv 1 mg/kg,11.2 mL/min/kg
same,half-life,[1]; iv 1 mg/kg,43.4 min
same,Vd,[1]; iv 1 mg/kg,0.522 L/kg
same,AUC(0-inf),[1]; po 5 mg/kg,4210 ng·h/mL
same,AUC(0-t),[1]; po 5 mg/kg,4180 ng·h/mL
same,Cmax,[1]; po 5 mg/kg,2760 ng/mL
same,MRT inf,[1]; po 5 mg/kg,79.2 min
same,Tmax,[1]; po 5 mg/kg,30 min
same,half-life,[1]; po 5 mg/kg,54.8 min
same,bioavailability,[1],55%
"O=C(O)c1ccc2c(c1)Oc1ccc(OCc3c(-c4c(Cl)cccc4Cl)noc3C3CC3)nc1CO2 [Example 2, 2-((5-cyclopropyl-3-(2,6-dichlorophenyl)isoxazol-4-yl)methoxy)-11H-benzo[2,3][1,4]dioxepino[6,5-b]pyridine-7-carboxylic acid]",pEC50,FXR-LBD,8.29
same,AUC(0-inf),[1]; iv 1 mg/kg,1150 ng·h/mL
same,AUC(0-t),[1]; iv 1 mg/kg,1150 ng·h/mL
same,Cmax,[1]; iv 1 mg/kg,2060 ng/mL
same,MRT inf,[1]; iv 1 mg/kg,32.9 min
same,Tmax,[1]; iv 1 mg/kg,4.98 min
same,clearance,[1]; iv 1 mg/kg,14.8 mL/min/kg
same,half-life,[1]; iv 1 mg/kg,53 min
same,Vd,[1]; iv 1 mg/kg,0.479 L/kg
same,AUC(0-inf),[1]; po 5 mg/kg,4110 ng·h/mL
same,AUC(0-t),[1]; po 5 mg/kg,4110 ng·h/mL
same,Cmax,[1]; po 5 mg/kg,3640 ng/mL
same,MRT inf,[1]; po 5 mg/kg,55.9 min
same,Tmax,[1]; po 5 mg/kg,30 min
same,half-life,[1]; po 5 mg/kg,42.6 min
same,bioavailability,[1],72%
"O=C(O)c1ccc2c(c1)Oc1ccc(OCc3c(-c4c(Cl)cccc4Cl)noc3C3CC3)nc1C1CC21 (centres unmarked) [Example 3, 3-((5-cyclopropyl-3-(2,6-dichlorophenyl)isoxazol-4-yl)methoxy)-1a,10b-dihydro-1H-benzo[6,7]cyclopropa[4,5]oxepino[3,2-b]pyridine-8-carboxylic acid]",pEC50,FXR-LBD,7.12
"O=C(O)c1cc(F)c2c(c1)Oc1ccc(OCc3c(-c4c(Cl)cccc4Cl)noc3C3CC3)nc1CC2 [Example 4, 2-((5-cyclopropyl-3-(2,6-dichlorophenyl)isoxazol-4-yl)methoxy)-9-fluoro-10,11-dihydrobenzo[6,7]oxepino[3,2-b]pyridine-7-carboxylic acid]",pEC50,FXR-LBD,7.22
"O=C(O)c1ccc2c(c1)Oc1ccc(OCc3c(-c4c(Cl)cccc4Cl)noc3C3CC3)nc1C(F)=C2 [Example 5, 2-((5-cyclopropyl-3-(2,6-dichlorophenyl)isoxazol-4-yl)methoxy)-11-fluorobenzo[6,7]oxepino[3,2-b]pyridine-7-carboxylic acid]",AUC(0-inf),[1]; iv 1 mg/kg,1580 ng·h/mL
same,AUC(0-t),[1]; iv 1 mg/kg,1580 ng·h/mL
same,Cmax,[1]; iv 1 mg/kg,3040 ng/mL
same,MRT inf,[1]; iv 1 mg/kg,32.9 min
same,Tmax,[1]; iv 1 mg/kg,4.98 min
same,clearance,[1]; iv 1 mg/kg,10.6 mL/min/kg
same,half-life,[1]; iv 1 mg/kg,40.9 min
same,Vd,[1]; iv 1 mg/kg,0.344 L/kg
same,AUC(0-inf),[1]; po 5 mg/kg,7480 ng·h/mL
same,AUC(0-t),[1]; po 5 mg/kg,7450 ng·h/mL
same,Cmax,[1]; po 5 mg/kg,6430 ng/mL
same,MRT inf,[1]; po 5 mg/kg,64.2 min
same,Tmax,[1]; po 5 mg/kg,30 min
same,half-life,[1]; po 5 mg/kg,50.3 min
same,bioavailability,[1],95%
"O=C(O)c1cc2c(cc1F)CCc1nc(OCc3c(-c4c(Cl)cccc4Cl)noc3C3CC3)ccc1O2 [Example 6, 2-((5-cyclopropyl-3-(2,6-dichlorophenyl)isoxazol-4-yl)methoxy)-8-fluoro-10,11-dihydrobenzo[6,7]oxepino[3,2-b]pyridine-7-carboxylic acid]",pEC50,FXR-LBD,7.51
"O=C(O)c1ccc2c(c1)Oc1ccc(OCc3c(-c4c(Cl)cccc4Cl)noc3C3CC3)nc1C(C(F)(F)F)=C2 [Example 7, 2-((5-cyclopropyl-3-(2,6-dichlorophenyl)isoxazol-4-yl)methoxy)-11-(trifluoromethyl)benzo[6,7]oxepino[3,2-b]pyridine-7-carboxylic acid]",pEC50,[2],7.96
"O=C(O)c1ccc2c(c1)Oc1ccc(OCc3c(-c4c(Cl)cccc4Cl)noc3C3CC3)nc1C(C(F)(F)F)C2 (centres unmarked) [Example 8, 2-((5-cyclopropyl-3-(2,6-dichlorophenyl)isoxazol-4-yl)methoxy)-11-(trifluoromethyl)-10,11-dihydrobenzo[6,7]oxepino[3,2-b]pyridine-7-carboxylic acid]",pEC50,[2],7.59
"O=C(O)c1ccc2c(c1)Oc1ccc(OCc3c(-c4c(Cl)cccc4Cl)noc3C3CC3)nc1C1(CC1)C2 [Example 9, 2-((5-cyclopropyl-3-(2,6-dichlorophenyl)isoxazol-4-yl)methoxy)-10H-spiro[benzo[6,7]oxepino[3,2-b]pyridine-11,1′-cyclopropane]-7-carboxylic acid]",pEC50,[2],8.70
"O=C(O)c1ccc2c(c1)Oc1ccc(OCc3c(-c4c(Cl)cccc4Cl)noc3C3CC3)nc1C(F)(F)C2 [Example 10, 2-((5-cyclopropyl-3-(2,6-dichlorophenyl)isoxazol-4-yl)methoxy)-11,11-difluoro-10,11-dihydrobenzo[6,7]oxepino[3,2-b]pyridine-7-carboxylic acid]",AUC(0-inf),[1]; iv 1 mg/kg,1330 ng·h/mL
same,AUC(0-t),[1]; iv 1 mg/kg,1330 ng·h/mL
same,Cmax,[1]; iv 1 mg/kg,3020 ng/mL
same,MRT inf,[1]; iv 1 mg/kg,25.7 min
same,Tmax,[1]; iv 1 mg/kg,4.98 min
same,clearance,[1]; iv 1 mg/kg,12.6 mL/min/kg
same,half-life,[1]; iv 1 mg/kg,47.6 min
same,Vd,[1]; iv 1 mg/kg,0.322 L/kg
same,AUC(0-inf),[1]; po 5 mg/kg,5840 ng·h/mL
same,AUC(0-t),[1]; po 5 mg/kg,5790 ng·h/mL
same,Cmax,[1]; po 5 mg/kg,3760 ng/mL
same,MRT inf,[1]; po 5 mg/kg,82.8 min
same,Tmax,[1]; po 5 mg/kg,30 min
same,half-life,[1]; po 5 mg/kg,57.4 min
same,bioavailability,[1],88%
same,pEC50,[2],7.92
"O=C(O)c1ccc2c(c1)Oc1ccc(OCc3c(-c4c(Cl)cccc4Cl)noc3C3CC3)nc1C(F)(F)C2O (centres unmarked) [Example 12, 2-((5-cyclopropyl-3-(2,6-dichlorophenyl)isoxazol-4-yl)methoxy)-11,11-difluoro-10-hydroxy-10,11-dihydrobenzo[6,7]oxepino[3,2-b]pyridine-7-carboxylic acid]",pEC50,[2],6.87
"CC1=Cc2ccc(C(=O)O)cc2Oc2ccc(OCc3c(C4CC4)cnn3-c3c(Cl)cccc3Cl)nc21 [Example 15, 2-((4-cyclopropyl-1-(2,6-dichlorophenyl)-1H-pyrazol-5-yl)methoxy)-11-methylbenzo[6,7]oxepino[3,2-b]pyridine-7-carboxylic acid]",pEC50,[2],7.89
"O=C(O)c1ccc2c(c1)Oc1ccc(OCc3c(-c4c(Cl)cccc4Cl)noc3C3CC3)nc1C(C1CC1)=C2 [Example 16, 11-cyclopropyl-2-((5-cyclopropyl-3-(2,6-dichlorophenyl)isoxazol-4-yl)methoxy)benzo[6,7]oxepino[3,2-b]pyridine-7-carboxylic acid]",pEC50,[2],8.30
"O=C(O)c1ccc2c(c1)Oc1ccc(OCc3c(-c4c(Cl)cccc4Cl)noc3C3CC3)nc1C(C1CC1)C2 (centres unmarked) [Example 17, 11-cyclopropyl-2-((5-cyclopropyl-3-(2,6-dichlorophenyl)isoxazol-4-yl)methoxy)-10,11-dihydrobenzo[6,7]oxepino[3,2-b]pyridine-7-carboxylic acid]",pEC50,[2],7.19
"CC1=Cc2nc(OCc3c(-c4c(Cl)cccc4Cl)noc3C3CC3)ccc2Oc2cc(C(=O)O)ccc21 [Example 18, 2-((5-cyclopropyl-3-(2,6-dichlorophenyl)isoxazol-4-yl)methoxy)-10-methylbenzo[6,7]oxepino[3,2-b]pyridine-7-carboxylic acid]",pEC50,[2],7.03
